Columns and labels:
Type in all cases: in vivo
Details in all cases: 1200 g/ha, scale of 0-100, 0 no activity, 100 total control, about two or four weeks after application
[1] = tested on: Hairy Beggarticks (Bidens pilosa); experiment: Herbicidal pre-emergence test, Hairy Beggarticks
Description: (§1) Listed below, a typical planting design for the test, consisting of four monocot weeds, four dicot weeds and one sedge weed. [table] For each compound, evaluation tests were carried out according to the following procedures: For preemergence tests, immediately after planting, the test compound was sprayed directly onto the soil surface. The flats or pots were placed in the greenhouse and then watered. For postemergence tests, seeds were allowed to germinate and grow for 10 to 21 days before application. The test plants were selected for uniformity, size and stage of development. The test plants were then treated with the test compound, returned to the greenhouse and watered. Untreated plants were used as a comparison. The compound to be evaluated was dissolved in an appropriate solvent, usually acetone, or a formulation of the evaluated compounds as described above, was added to the water, and sprayed over the flats or pots using a carrier volume equivalent to 187 or 468 liters per hectare to give a rate of application in grams per hectare (g/ha). About two or four weeks after application of the test compounds, the state of the plant was observed. Each species was evaluated on a scale of 0-100 in which 0 equals no activity and 100 equals total control.

[2] = tested on: Hairy Beggarticks (Bidens pilosa); experiment: Herbicidal post-emergence test, Hairy Beggarticks
Description: as §1

[3] = tested on: Nightshade, (black) (Solanum nigrum); experiment: Herbicidal pre-emergence test, Nightshade (black)
Description: as §1

[4] = tested on: Nightshade, (black) (Solanum nigrum); experiment: Herbicidal post-emergence test, Nightshade (black)
Description: as §1

[5] = tested on: Smartweed, (pale) (Polygonum lapathifolium); experiment: Herbicidal pre-emergence test, Smartweed (pale)
Description: as §1

[6] = tested on: Smartweed, (pale) (Polygonum lapathifolium); experiment: Herbicidal post-emergence test, Smartweed (pale)
Description: as §1

[7] = tested on: Velvetleaf (Abutilon theophrasti); experiment: Herbicidal pre-emergence test, Velvetleaf
Description: as §1

[8] = tested on: Velvetleaf (Abutilon theophrasti); experiment: Herbicidal post-emergence test, Velvetleaf
Description: as §1

[9] = tested on: Barnyardgrass (Echinochloa crusgalli); experiment: Herbicidal pre-emergence test, Barnyardgrass
Description: as §1

[10] = tested on: Barnyardgrass (Echinochloa crusgalli); experiment: Herbicidal post-emergence test, Barnyardgrass
Description: as §1

[11] = tested on: Crabgrass (large) (Digitaria sanguinalis); experiment: Herbicidal pre-emergence test, Crabgrass (large)
Description: as §1

[12] = tested on: Crabgrass (large) (Digitaria sanguinalis); experiment: Herbicidal post-emergence test, Crabgrass (large)
Description: as §1

[13] = tested on: Foxtail, (green) (Setaria viridis); experiment: Herbicidal pre-emergence test, Foxtail (green)
Description: as §1

[14] = tested on: Foxtail, (green) (Setaria viridis); experiment: Herbicidal post-emergence test, Foxtail (green)
Description: as §1

[15] = tested on: Nutsedge, (yellow) (Cyperus esculentus); experiment: Herbicidal pre-emergence test, Nutsedge (yellow)
Description: as §1

[16] = tested on: Nutsedge, (yellow) (Cyperus esculentus); experiment: Herbicidal post-emergence test, Nutsedge (yellow)
Description: as §1

[17] = tested on: Perennial Ryegrass (Lolium perenne); experiment: Herbicidal pre-emergence test, Perennial Ryegrass
Description: as §1

[18] = tested on: Perennial Ryegrass (Lolium perenne); experiment: Herbicidal post-emergence test, Perennial Ryegrass
Description: as §1

| Compound | Herbicidal Activity BID (pre-emergence) [1] | Herbicidal Activity BID (post-emergence) [2] | Herbicidal Activity NS (pre-emergence) [3] | Herbicidal Activity NS (post-emergence) [4] | Herbicidal Activity SMT (pre-emergence) [5] | Herbicidal Activity SMT (post-emergence) [6] | Herbicidal Activity VEL (pre-emergence) [7] | Herbicidal Activity VEL (post-emergence) [8] | Herbicidal Activity BYG (pre-emergence) [9] | Herbicidal Activity BYG (post-emergence) [10] | Herbicidal Activity CRB (pre-emergence) [11] | Herbicidal Activity CRB (post-emergence) [12] | Herbicidal Activity FOX (pre-emergence) [13] | Herbicidal Activity FOX (post-emergence) [14] | Herbicidal Activity NUT (pre-emergence) [15] | Herbicidal Activity NUT (post-emergence) [16] | Herbicidal Activity RYE (pre-emergence) [17] | Herbicidal Activity RYE (post-emergence) [18] |
| --- | --- | --- | --- | --- | --- | --- | --- | --- | --- | --- | --- | --- | --- | --- | --- | --- | --- | --- |
| C#CCOc1cc(N2C(=O)C(=O)N(CCCC)C2=O)c(F)cc1Cl [Compound 14] | 0 | 95 | 0 | 100 | 0 | 60 | 0 | 100 | 0 | 30 | 0/0 | 0/0 | 0 | 40 | 0/0 | 0/0 | 0/0 | 0/0 |
| C#CCN1C(=O)COc2cc(F)c(N3C(=O)C(=O)N(CC(F)(F)F)C3=O)cc21 [Compound 24] | 0 | 40 | 0 | 60 | 0 | 40 | 0 | 60 | 0/0 | 0/0 | 0/0 | 0/0 | 0/0 | 0/0 | 0/0 | 0/0 | 0/0 | 0/0 |
| C#CCOc1cc(N2C(=O)C(=O)N(C)C2=O)c(F)cc1Cl [Compound 12] | 40 | 95 | 50 | 100 | 0 | 100 | 20 | 100 | 0 | 40 | 0 | 30 | 0 | 40 | 0/0 | 0/0 | 0/0 | 0/0 |
| COC(=O)c1cc(N2C(=O)C(=O)N(C(C)C)C2=O)c(F)cc1Cl [Compound 18, 1-(2-fluoro-4-chloro-5-methoxycarbonylphenyl)-3-isopropyl-2,4,5-imidazolidinetrione] | 100/100 | 100/100 | 100 | 95 | 40 | 95 | 0 | 95 | 0 | 40 | 0 | 30 | 0 | 60 | 0/0 | 0/0 | 0/0 | 0/0 |
| CN1C(=O)C(=O)N(c2cc(OC3CCCC3)c(Cl)cc2F)C1=O [Compound 3] | 0 | 80 | 0 | 80 | 0 | 85 | 0 | 100 | 0 | 30 | 0/0 | 0/0 | 0 | 60 | 0/0 | 0/0 | 0/0 | 0/0 |
| CCN1C(=O)C(=O)N(c2cc(OC3CCCC3)c(Cl)cc2F)C1=O [Compound 4] | 0 | 85 | 0 | 85 | 0 | 90 | 0 | 100 | 0 | 60 | 0/0 | 0/0 | 0 | 60 | 0/0 | 0/0 | 0/0 | 0/0 |
| CCOC(=O)COc1cc(N2C(=O)C(=O)N(C)C2=O)c(F)cc1Cl [Compound 17] | 0/0 | 0/0 | 30 | 0 | 30 | 0 | 0/0 | 0/0 | 0/0 | 0/0 | 0/0 | 0/0 | 0/0 | 0/0 | 0/0 | 0/0 | 30 | 0 |
| C#CCOc1cc(N2C(=O)C(=O)N(CCC)C2=O)c(F)cc1Cl [Compound 13] | 100 | 85 | 100/100 | 100/100 | 100 | 95 | 100/100 | 100/100 | 95 | 80 | 100 | 30 | 100 | 60 | 0 | 30 | 60 | 30 |
